Experimental findings from patent US20240228468A1, “N-(6-((OCTAHYDROCYCLOPENTA[C]PYRROL-5-YI)AMINO)PYRIDAZIN-3-YL)PHENYL)CARBOXAMIDE AND (6- ((OCTAHYDROCYCLOPENTA[C]PYRROL-5-YL)AMINO)PYRIDAZIN-3-YL)BENZAMIDE DERIVATIVES AS MACHR M4 ANTAGONISTS FOR THE TREATMENT OF NEURODEGENERATIVE DISORDERS” (Vanderbilt University, priority 2021, published 2024) are described below.

This assay concerns the target T1, Human M4 (Homo sapiens, UniProt P08173).
T1 construct: expressed in transfected cells; host or cells: CHO-K1 (ATCC), co-transfected with chimeric G protein Gqi5
T1 sequence (P08173 1-479): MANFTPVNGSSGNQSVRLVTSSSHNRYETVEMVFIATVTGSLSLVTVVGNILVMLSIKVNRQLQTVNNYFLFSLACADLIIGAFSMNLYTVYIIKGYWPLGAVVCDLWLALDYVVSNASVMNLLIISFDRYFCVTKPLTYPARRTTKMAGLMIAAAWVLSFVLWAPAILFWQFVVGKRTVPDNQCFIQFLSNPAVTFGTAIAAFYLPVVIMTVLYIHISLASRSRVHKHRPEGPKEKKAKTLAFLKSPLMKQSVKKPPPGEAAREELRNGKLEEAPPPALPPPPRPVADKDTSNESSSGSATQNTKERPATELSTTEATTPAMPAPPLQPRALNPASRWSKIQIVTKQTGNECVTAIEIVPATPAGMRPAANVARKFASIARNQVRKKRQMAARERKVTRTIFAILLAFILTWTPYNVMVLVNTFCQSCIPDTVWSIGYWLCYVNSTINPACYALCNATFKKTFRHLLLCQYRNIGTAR
In words: mAChR M4 cell-based functional assay (calcium flux, antagonism of EC80 acetylcholine response). The note with it: for IC50: concentration-dependent decrease of the response elicited by an EC80 concentration of acetylcholine. The method, then: Human or rat M4 cDNA, along with the chimeric G protein Gqi5, were transfected into Chinese hamster ovary (CHO-K1) cells purchased from the American Type Culture Collection using Lipofectamine2000. M4/Gqi5/CHO cells were grown in Ham's F-12 medium containing 10% heat-inactivated fetal bovine serum (FBS), 20 mM HEPES, 500 μg/mL G418 sulfate, and 200 μg/mL Hygromycin B.
For high throughput measurement of agonist-evoked increases in intracellular calcium, CHO-K1 cells stably expressing muscarinic receptors were plated in growth medium lacking G418 and hygromycin at 15,000 cells/20 μL/well in Greiner 384-well black-walled, tissue culture (TC)-treated, clear-bottom plates (VWR). Cells were incubated overnight at 37° C. and 5% CO2. The next day, cells were washed using an ELX 405 (BioTek) with assay buffer; the final volume was then aspirated to 20 μL. Next, 20 μL of a 2.3 μM stock of Fluo-4/acetoxymethyl ester (Invitrogen, Carlsbad, CA), prepared as a 2.3 mM stock in DMSO and mixed in a 1:1 ratio with 10% (w/v) Pluronic F-127 and diluted in assay buffer, was added to the wells and the cell plates were incubated for 50 min at 37° C. and 5% CO2. Dye was removed by washing with the ELX 405 and the final volume was aspirated to 20 μL. Compound master plates were formatted in a 10 point concentration-response curve (CRC) format (1:3 dilutions) in 100% DMSO with a starting concentration of 10 or 1 mM using a BRAVO liquid handler (Agilent). Test compound CRCs were then transferred to daughter plates (240 nL) using the Echo acoustic plate reformatter (Labcyte, Sunnyvale, CA) and then diluted into assay buffer (40 μL) to a 2× stock using a Thermo Fisher Combi (Thermo Fisher Scientific, Waltham, MA).
Calcium flux was measured using the Functional Drug Screening System (FDSS) 6000 or 7000 (Hamamatsu Corporation, Tokyo, Japan) as an increase in the fluorescent static ratio. Compounds were applied to cells (20 μL, 2×) using the automated system of the FDSS at 2 seconds into the protocol and the data were collected at 1 Hz. At 143 s, 10 μL of an EC20 concentration of the muscarinic receptor agonist acetylcholine was added (5×), followed by the addition of 12 μL of an EC80 concentration of acetylcholine at the 268 s time point (5×). Agonist activity was analyzed as a concentration-dependent increase in calcium mobilization upon compound addition. Positive allosteric modulator activity was analyzed as a concentration-dependent increase in the EC20 acetylcholine response. Antagonist activity was analyzed as a concentration-dependent decrease in the EC80 acetylcholine response; for the purposes of the tables herein, an IC50 (inhibitory concentration 50) was calculated as a concentration-dependent decrease of the response elicited by an EC80 concentration of acetylcholine. Concentration-response curves were generated using a four-parameter logistical equation in XLFit curve fitting software (IDBS, Bridgewater, NJ) for Excel (Microsoft, Redmond, WA) or Prism (GraphPad Software, Inc., San Diego, CA) or the Dotmatics software platform (Dotmatics, Bishop's Stortford, UK).
Compounds were synthesized as described above. Activity (IC50 and Emin) was determined in the mAChR M4 cell-based functional assay as described above and the data are shown in Table 2.
For orientation: A change in cytosolic calcium serves as a functional read-out for many receptors and channels.

The mark [1] stands for this setting: M4/Gqi5/CHO-K1 cells, % ACh maximum at 30 μM, read-out: Human M4 Emin (% ACh maximum at 30 μM).
[2] abbreviates: CHO-K1, read-out: Human M4 Emin (% ACh maximum at 30 μM).

Read-outs that look alike come from different tables or passages of the source.

With `[2H]C([2H])(C1CCOCC1)N1C[C@H]2C[C@H](Nc3ccc(-c4cc(C(=O)NC)ccc4F)nn3)C[C@H]2C1` [Compound A69, 4-fluoro-N-methyl-3-(6-(((3aR,5s,6aS)-2-((tetrahydro-2H-pyran-4-yl)methyl-d2)octahydrocyclopenta[c]pyrrol-5-yl)amino)pyridazin-3-yl)benzamide], the remaining activity at 30 µM under setting [1] was found to be 5%. Further, where the note is “M4/Gqi5/CHO-K1 cells”, the IC50 (usually the concentration that gives 50% inhibition) is 120 nM.
For `[2H]C([2H])([C@H]1CCCCO1)N1C[C@H]2C[C@H](Nc3ccc(-c4cccc(C(=O)NC)c4)nn3)C[C@H]2C1` [Compound A81, N-methyl-3-(6-(((3aR,5s,6aS)-2-(((R)-tetrahydro-2H-pyran-2-yl)methyl-d2)octahydrocyclopenta[c]pyrrol-5-yl)amino)pyridazin-3-yl)benzamide], the remaining activity at 30 µM under setting [1] was determined as 4%. In addition, the IC50 (M4/Gqi5/CHO-K1 cells) is 0.41 nM.
The matching figures for `[2H]C([2H])(C1CCOCC1)N1C[C@H]2C[C@H](Nc3ccc(-c4cc(F)c(C(N)=O)c(F)c4)nn3)C[C@H]2C1` [Compound A68, 2,6-difluoro-4-(6-(((3aR,5s,6aS)-2-((tetrahydro-2H-pyran-4-yl)methyl-d2)octahydrocyclopenta[c]pyrrol-5-yl)amino)pyridazin-3-yl)benzamide]: 4% and 11 nM.
On the same counts, the results for `CCN(CC)C(=O)c1ccc(-c2ccc(N[C@H]3C[C@@H]4CN(CC5CCOCC5)C[C@@H]4C3)nn2)c(F)c1` [Compound A38, N,N-diethyl-3-fluoro-4-(6-(((3aR,5s,6aS)-2-((tetrahydro-2H-pyran-4-yl)methyl)octahydrocyclopenta[c]pyrrol-5-yl)amino)pyridazin-3-yl)benzamide] are 4% and 48 nM.
With `CC(=O)Nc1ccc(-c2ccc(N[C@H]3C[C@@H]4CN(Cc5cc(C)n(C)n5)C[C@@H]4C3)nn2)cc1` [Compound A5, N-(4-(6-(((3aR,5s,6aS)-2-((1,5-dimethyl-1H-pyrazol-3-yl)methyl)octahydrocyclopenta[c]pyrrol-5-yl)amino)pyridazin-3-yl)phenyl)acetamide], the remaining activity at 30 µM under setting [1] is 10%. Also, for the setting “M4/Gqi5/CHO-K1 cells”, the IC50 came out at 2300 nM.
On the same counts, the results for `[2H]C([2H])(C1CCOCC1)N1C[C@H]2C[C@H](Nc3ccc(-c4cccc(C(=O)NC(C)C)c4)nn3)C[C@H]2C1` [Compound A72, N-isopropyl-3-(6-(((3aR,5s,6aS)-2-((tetrahydro-2H-pyran-4-yl)methyl-d2)octahydrocyclopenta[c]pyrrol-5-yl)amino)pyridazin-3-yl)benzamide] are 5% and 28 nM.
For the compound `CCC(=O)Nc1cccc(-c2ccc(N[C@H]3C[C@@H]4CN(CC5CCOCC5)C[C@@H]4C3)nn2)c1` [Compound A56, N-(3-(6-(((3aR,5s,6aS)-2-((tetrahydro-2H-pyran-4-yl)methyl)octahydrocyclopenta[c]pyrrol-5-yl)amino)pyridazin-3-yl)phenyl)propionamide], the remaining activity at 30 µM under setting [1] was determined as 4%. Further, where the note is “M4/Gqi5/CHO-K1 cells”, the IC50 is 43 nM.
The matching figures for `[2H]C([2H])(C1CCOCC1)N1C[C@H]2C[C@H](Nc3ccc(-c4cccc(NC(=O)CC)c4)nn3)C[C@H]2C1` [Compound A57, N-(3-(6-(((3aR,5s,6aS)-2-((tetrahydro-2H-pyran-4-yl)methyl-d2)octahydrocyclopenta[c]pyrrol-5-yl)amino)pyridazin-3-yl)phenyl)propionamide]: 3% and 37 nM.
Turning to `[2H]C([2H])([2H])C(=O)Nc1ccccc1-c1ccc(N[C@H]2C[C@@H]3CN(C([2H])([2H])C4CCOCC4)C[C@@H]3C2)nn1` [Compound B4, N-(2-(6-(((3aR,5s,6aS)-2-((tetrahydro-2H-pyran-4-yl)methyl-d2)octahydrocyclopenta [c]pyrrol-5-yl)amino)pyridazin-3-yl)phenyl) acetamide-2,2,2-d3], the “Human M4 Emin (% ACh maximum at 30 μM)” value (M4/Gqi5/CHO-K1 cells, % ACh maximum at 30 μM) turned out to be 4%. Also, the half-maximal inhibitory concentration (IC50) (M4/Gqi5/CHO-K1 cells) was 120 nM.
`O=C(c1ccc(-c2ccc(N[C@H]3C[C@@H]4CN(CC5CCOCC5)C[C@@H]4C3)nn2)cc1)N1CCCC1` [Compound A21, Pyrrolidin-1-yl(4-(6-(((3aR,5s,6aS)-2-((tetrahydro-2H-pyran-4-yl)methyl)octahydrocyclopenta[c]pyrrol-5-yl)amino)pyridazin-3-yl)phenyl)methanone]: the remaining activity at 30 µM under setting [2] stood at 4%. The IC50 (M4/Gqi5/CHO-K1 cells) was found to be 3.9 nM.
The matching figures for `CS(=O)(=O)CC(=O)Nc1cccc(-c2ccc(N[C@H]3C[C@@H]4CN(CC5CCOCC5)C[C@@H]4C3)nn2)c1` [Compound A17, 2-(Methylsulfonyl)-N-(3-(6-(((3aR,5s,6aS)-2-((tetrahydro-2H-pyran-4-yl)methyl)octahydrocyclopenta[c]pyrrol-5-yl)amino)pyridazin-3-yl)phenyl)acetamide]: 3% and 2.8 nM.
Turning to `[2H]C([2H])(C1CCOC(C)(C)C1)N1C[C@H]2C[C@H](Nc3ccc(-c4cccc(C(=O)NC)c4)nn3)C[C@H]2C1` (stereo partly drawn) [Compound A75, 3-(6-(((3aR,5s,6aS)-2-((2,2-dimethyltetrahydro-2H-pyran-4-yl)methyl-d2)octahydrocyclopenta[c]pyrrol-5-yl)amino)pyridazin-3-yl)-N-methylbenzamide], the remaining activity at 30 µM under setting [1] was determined as 3%. Also, the IC50 (M4/Gqi5/CHO-K1 cells) was 3.4 nM.
Turning to `CC(=O)Nc1ccc(-c2ccc(N[C@H]3C[C@@H]4CN(Cc5ccccn5)C[C@@H]4C3)nn2)cc1` [Compound A8, N-(4-(6-(((3aR,5s,6aS)-2-(Pyridin-2-ylmethyl)octahydrocyclopenta[c]pyrrol-5-yl)amino)pyridazin-3-yl)phenyl)acetamide], under setting [2], the remaining activity at 30 µM came to 5%. The IC50 (M4/Gqi5/CHO-K1 cells) amounted to 43 nM.
With `CC(=O)Nc1ccc(-c2ccc(N[C@H]3C[C@@H]4CN(Cc5cccc(F)c5)C[C@@H]4C3)nn2)cc1` [Compound A2, N-(4-(6-(((3aR,5s,6aS)-2-(3-fluorobenzyl)octahydrocyclopenta[c]pyrrol-5-yl)amino)pyridazin-3-yl)phenyl)acetamide], under setting [1], the remaining activity at 30 µM turned out to be 4%. Besides, for the setting “M4/Gqi5/CHO-K1 cells”, the IC50 is 51 nM.
On the same counts, the results for `[2H]C([2H])([C@H]1CCCOC1)N1C[C@H]2C[C@H](Nc3ccc(-c4cc(F)cc(C(=O)NC)c4)nn3)C[C@H]2C1` [Compound A84, 3-fluoro-N-methyl-5-(6-(((3aR,5s,6aS)-2-(((R)-tetrahydro-2H-pyran-3-yl)methyl-d2)octahydrocyclopenta[c]pyrrol-5-yl)amino)pyridazin-3-yl)benzamide] are 6% and 340 nM.
The matching figures for `[2H]C1([2H])CC(C([2H])([2H])N2C[C@H]3C[C@H](Nc4ccc(-c5cccc(C(=O)NC)c5)nn4)C[C@H]3C2)CC([2H])([2H])O1` (single isomer, unassigned) [Compound A74]: 4% and 40 nM.
